Measurements: US20190262323A1, “COMPOSITIONS AND METHODS FOR TREATING NEURODEGENERATIVE DISORDERS” (GEORGETOWN UNIVERSITY, priority 2016, published 2019)

What was measured:
[1] = tested on: beta-amyloid, synuclein and Tau; assay: LCB-03-0110 tested in cell culture: levels of misfolded proteins; type: cell-based; conditions: low doses (0.1-3 nM)
Experimental: shRNAs were designed to specifically knock down DDR1 and DDR2 receptors, and study their effects on clearance of misfolded protein accumulation in neurodegeneration. […] These shRNAs were then injected into animal models in vivo. […] A known DDR inhibitor, LCB-03-0110, was tested in cell culture. Low doses (0.1-3 nM) of LCB-03-0110 reduced the levels of beta-amyloid, synuclein and Tau in cell culture.

[2] = tested on: Beclin, Atg7, Atg12, LC3-I, LC3-II; assay: Western blot of soluble brain fractions of treated APP mice: autophagy markers; type: in vivo, transgenic APP mice; conditions: 1.25 or 2.5 mg/kg
Experimental: (§1) Transgenic mice harboring the Swedish, Dutch, and Iowa mutation for human amyloid beta-precursor protein were treated with intraperitoneal (IP) injections of 10 mg/kg, 5 mg/kg, 2.5 mg/kg, 1.25 mg/kg of LCB 03-0110 or 30 μL of dimethylsulfoxide (DMSO) every day for 1 week. LCB 03-0110 is a potent inhibitor of discoidin domain receptor 2 (DDR2) family tyrosine kinases. All animal experiments were conducted in full compliance with the recommendations of Georgetown University Animal Care and Use Committee (GUAUC). Fifteen mice were used for brain and blood extractions, and fifteen mice were used for drug treatments. Four transgenic APP mice were treated with DMSO, four transgenic APP mice were treated with 10 mg/kg of LCB 03-0110, four transgenic APP mice were treated with 5 mg/kg of LCB 03-0110, four transgenic APP mice were treated with 2.5 mg/kg of LCB 03-0110, and three transgenic APP mice were treated with 1.25 mg/kg of LCB 03-0110. Seven transgenic APP mice were treated with DMSO, and 7 transgenic APP mice were treated with 2.5 mg/kg of LCB.
Brain tissues from transgenic APP mice treated with LCB 03-0110 at 10 mg/kg, 5 mg/kg, 2.5 mg/kg, and 1.25 mg/kg were homogenized in 1×STEN buffer, centrifuged at 10,000×g for 20 min at 4° C., and the supernatants containing the soluble fraction were collected. […]

cytokines and chemokines = assay: MILLIPLEX Mouse Cytokine/Chemokine Magnetic Bead Panel; type: in vivo, transgenic APP mice; conditions: 2.5 mg/kg or 1.25 mg/kg
Experimental: as §1
(§2) MILLIPLEX®: Cytokines and chemokines were measured in serum and brain with the Mouse Cytokine/Chemokine Magnetic Bead Panel (Cat MCYTOMAG-70K, EMD Millipore). Human amyloid beta and total tau was measured in brain using the Human Amyloid Beta and Tau Panel (Cat HNABTMAG-68K, EMD Millipore). AKT/mTOR signaling cascade phosphoproteins were measured using the Akt/mTOR Phosphoprotein Magnetic Bread 11-Plex Kit (Cat 48-611MAG, EMD Millipore). Assays were performed according to the manufacturer's protocols.

phosphorylated mTOR = assay: MILLIPLEX Akt/mTOR phosphoprotein analysis; type: in vivo, transgenic APP mice; conditions: mean fluorescent intensity; 1.25 or 2.5 mg/kg
Experimental: as §1, with “Seven transgenic APP mice were treated with DMSO, and 7 transgenic APP mice were treated with 2.5 mg/kg of LCB.” left out
as §2, with “Assays were performed according to the manufacturer's protocols.” left out

Tau [pS396] = assay: Human Tau [pS396] solid phase sandwich ELISA on brain tissue homogenates from treated transgenic APP mice; type: in vivo
Experimental: as §1
(§3) Animals were deeply anesthetized with a mixture of Xylazine and Ketamine (1:8). Whole blood (500 μl) was collected via cardiac puncture and centrifuged at 2000×g to precipitate blood cells. The serum was collected for mass spectrometric analysis. To wash out the remaining blood from vessels and reduce contamination, animals were perfused with 25 ml of 1X phosphate buffered saline (PBS) for 5 min and the brains were collected. A hemisphere was frozen and stored at −80° C. for mass spectrometry studies and the other hemisphere was immediately homogenized in 2.0 ml lysis buffer (containing protease and phosphatase inhibitors) and labeled as a soluble protein fraction.
Human Tau [pS396] solid phase sandwich ELISA was performed on brain tissue homogenates from transgenic APP mice treated with LCB 03-0110 at 10 mg/kg, 5 mg/kg, 2.5 mg/kg, and 1.25 mg/kg. A monoclonal Tau capture antibody was coated onto micro-wells. 50 μl of soluble lysate was added to each well, allowing the Tau [pS396] antigen to bind to the immobilized capture antibody, and incubated for two hours at room temperature. After the two hour incubation, samples were washed and incubated with 100 μl of rabbit monoclonal tau [pS396] detection antibody and incubated for one hour at room temperature. Following extensive washing, a 100 μl of horseradish peroxidase labeled anti-rabbit IgG was added to each well and incubated for thirty minutes at room temperature. Samples were washed to remove all unbound enzyme. […] The magnitude of the absorbance for this developed color was proportional to the quantity of Tau […] proteins in the brain tissue homogenates. […] All statistics were performed using ANOVA with Tukey multiple comparison post-test and data were expressed as Mean±SD.

[3] = tested on: APP/Aβ, Aβ42, p-tau (AT180); assay: Western blot of soluble brain fractions of treated APP mice: amyloid and p-tau; type: in vivo, transgenic APP mice
Experimental: as §1
Brain tissues from transgenic APP mice treated with LCB 03-0110 at 10 mg/kg, 5 mg/kg, 2.5 mg/kg, and 1.25 mg/kg were homogenized in 1×STEN buffer, centrifuged at 10,000×g for 20 min at 4° C., and the supernatants containing the soluble fraction were collected. Soluble fractions were probed with mouse monoclonal anti-6E10 (1:1000), rabbit polyclonal anti-Ab42 (1:1000), mouse monoclonal anti-AT180 (1:1000), rabbit polyclonal anti-Beclin-1 (1:1000), rabbit polyclonal anti-Atg7 (1:1000), rabbit polyclonal anti-Atg12 (1:1000), rabbit polyclonal anti-LC3B (1:1000) and rabbit polyclonal anti-actin (1:1000).

APP mice = assay: Morris water maze; type: in vivo; conditions: 2.5 mg/kg for three weeks; by day three of training; average of three trials
Experimental: APP mice treated with either DMSO or 2.5 mg/kg LCB-03-0110 for 3 weeks were trained three times a day to find a submerged platform using visuospatial cues inside the apparatus. […] The mouse was allowed up to 60 seconds to find the platform, after which it would be removed from the apparatus after 5 seconds on the platform. If the animal was unable to find the platform, it was placed on the platform for 20 seconds. […] Data are shown as an average of three trials.

[4] = Pharmacokinetic analysis of brain and serum by mass spectrometry; type: in vivo, C57BL/6 mice
Experimental: C57BL/6 mice received a single IP dose of 1.25, 2.5, 5, or 10 mg/kg LCB, and brain and serum were collected at 2, 4, 6, or 8 hours (n=3 per dose and time point). Animals injected with vehicle (DMSO) were used for background subtraction. Drug levels were determined at the Georgetown University Proteomics and Metabolomics Shared Resources (PMSR). Stock solution for LCB-03110 [(approximately 1 mg/mL each) was prepared in methanol/dichloromethane (50:50). The serial dilutions for each of the standards were produced for the study separately in methanol/HPLC grade water (50:50). Preparation of the calibration curve standards and quality samples (QC) was performed by mixing the stock solutions in blank samples. The final calibration concentration for LCB-03110 ranged from 0.1 ng/mL to 100 ng/mL. The QC concentrations were 30 ng/mL, 3 ng/mL and 0.3 ng/mL, respectively. Serum and brain samples were stored at −80° C. and then thawed to room temperature prior to preparation. The thawed serum samples (20 μL) were transfused to a tube containing 100 μL of water. The 500 μL extraction solvent and acetonitrile/methanol (50:50) was added to the sample. The mixture was vortexed and incubated on ice for 20 minutes to accelerate protein precipitation. After incubation, the samples were vortexed again and centrifuged at 13,000 rpm for 20 minutes at 4° C. The supernatant was then collected and transferred to a new tube, was dried using speed vac, and reconstituted in 200 μL of methanol/water (50:50). The mixture was spun again at 13,000 rpm for 20 minutes at 4° C. The supernatant was then collected into a mass spec sample tube cap and run in the mass spectrometer. For brain, a small section of the thawed brain sample from each animal was transferred to a flat bottom tube. 200 μL of methanol/water (90:10) was added, and the tissue was homogenized. Acetonitrile was then added to the mixture facilitating protein precipitation. The mixture was then incubated on ice for 10 minutes. After incubation, the samples were vortexed and centrifuged at 13,000 rpm for 20 minutes at 4° C. The supernatant was then collected and transferred to a new tube, dried using speed vac, and reconstituted in 200 μL of methanol/water (50:50). The mixture was centrifuged at 13,000 rpm for 20 minutes at 4° C. The supernatant was collected into a mass spec sample tube cap and run in the mass spectrometer. The samples were resolved on an Acquity UPLC BEH C18 […], 2.1×50 mm column online with a triple quadrupole mass spectrometer (Xevo-TQ-S, Waters Corporation, USA) operating in the multiple reaction monitoring (MRM) mode. The sample cone voltage and collision energies were optimized for both analytes to obtain maximum ion intensity for parent and daughter ions using “Intelli Start” feature of MassLynx software (Waters Corporation, USA). The instrument parameters were optimized to gain maximum specificity and sensitivity of ionization for the parent [m/z=438.25] and daughter ions [m/z=357.33]. Signal intensities from all MRM Q1/Q3 ion pairs for analytes were ranked to ensure selection of the most intense precursor and fragment ion pair for MRM-based quantitation. […] Analysis was performed with a six to eight-point calibration curve, the sample queue was randomized and solvent blanks were injected to assess sample carryover. MRM data were processed using TargetLynx 4.1. The relative quantification values of analytes were determined by calculating the ratio of peak areas of transitions of samples normalized to the peak area of the internal standard.

human amyloid beta = assay: MILLIPLEX Human Amyloid Beta and Tau Panel, soluble and insoluble brain fractions; type: in vivo, transgenic APP mice; conditions: 2.5 mg/kg daily for 3 weeks
Experimental: as §1, with “Transgenic mice harboring the Swedish, Dutch, and Iowa mutation for human amyloid beta-precursor protein were treated with intraperitoneal (IP) injections of 10 mg/kg, 5 mg/kg, 2.5 mg/kg, 1.25 mg/kg of LCB 03-0110 or 30 μL of dimethylsulfoxide (DMSO) every day for 1 week.” left out
as §3
After removing the soluble supernatant, the tissue pellet was washed with 1×STEN buffer. […]
as §2, with “Assays were performed according to the manufacturer's protocols.” left out

[5] = brain response values (Area/IS Area), single IP dose

What does the source list for `Oc1cccc(Nc2ccnc3cc(-c4cccc(CN5CCOCC5)c4)sc23)c1` [LCB 03-0110, 3-(2-(3-(morpholinomethyl)phenyl)thieno[3,2-b]pyridine-7-ylamino)phenol]?
levels of Tau [1]: reduced; levels of beta-amyloid [1]: reduced; levels of synuclein [1]: reduced; autophagy and autophagosomes (Beclin, Atg7, Atg12, LC3-I, LC3-II Western blot) [2]: stimulates autophagy and clears autophagosomes; level of LC3-II/LC3-I, densitometry analysis of LC3-II levels ([2]; n=5): significantly reduces; RANTES levels (cytokines and chemokines): does not alter; VEGF-A levels (cytokines and chemokines): reduces VEGF-A to control levels; brain inflammation (cytokines and chemokines): reduced; granulocyte colony-stimulating factor (G-CSF) (cytokines and chemokines): reductions; granulocyte-macrophage colony-stimulating factor (GM-CSF) (cytokines and chemokines): reductions; macrophage colony-stimulating factor (M-CSF) (cytokines and chemokines): reductions; macrophage inflammatory factor 1 alpha (MIP-1α) (cytokines and chemokines): reductions; macrophage inflammatory factor 1 beta (MIP-1β) (cytokines and chemokines): reductions; macrophage inflammatory protein 1 (MIP-1) (cytokines and chemokines): reductions; macrophage inflammatory protein 2 (MIP-2) (cytokines and chemokines): reductions; phosphorylated mTOR levels (phosphorylated mTOR): without altering; total Tau levels (Tau [pS396]; 10 mg/kg or less, 12-15 month old APP mice, after one week): does not alter; level of phosphorylated Tau (pS396) (Tau [pS396]; brain homogenate, 10 mg/kg or less (10, 5, 2.5, 1.25 mg/kg) IP daily for 1 week, vs DMSO): reduces; ratio of Tau (phosphorylated Tau (pS396)/total Tau) (Tau [pS396]; brain homogenate, 10 mg/kg or less IP daily for 1 week, vs DMSO): reduces; reducing the ratio of Tau: lower dosages compared with higher dosages (Tau [pS396]; less than 2.5 mg/kg versus greater than 5.0 mg/kg): more effective; levels of p-tau (AT180) (Western blot) ([3]; 1.25 or 2.5 mg/kg daily, after one week): reduced; levels of APP/Aβ (Western blot) ([3]; 1.25 or 2.5 mg/kg daily, after one week, actin loading control): reduced; levels of amyloid, densitometry analysis ([3]; n=5, 3 mutant APP mice, about 2.5 mg/kg or less): significantly reduced; beta-amyloid (Aβ42) levels (Western blot) ([3]; soluble brain fraction, 1.25 or 2.5 mg/kg daily, one week): effective in reducing; reduction in the average time to find a submerged platform (APP mice): 30%; Tmax of the plasma:brain ratio ([4]; 2.5 mg/kg): about 2 hours; plasma:brain ratio, comparison of doses ([4]; 2.5 mg/kg, among 10, 5, 2.5 and 1.25 mg/kg): highest plasma:brain ratio; drug concentration in the brain, comparison of doses ([4]; 10 mg/kg, among 10, 5, 2.5 and 1.25 mg/kg): highest drug concentration in the brain; time at which washed out completely from the brain [4, 5]: about 4 hours; time of peak in the brain [4, 5]: about 1 hour; blood brain barrier penetration ([4]; single IP dose 1.25, 2.5, 5 or 10 mg/kg): penetrates the blood brain barrier; soluble human Aβ40 levels (human amyloid beta; brain): significantly reduced; soluble human Aβ42 levels (human amyloid beta; brain): significantly reduced; insoluble human Aβ42 levels (human amyloid beta; brains of APP mice): significantly reduced
